In US7745489B2, “Compositions and methods for inhibition of phospholipase A2 mediated inflammation” (The Regents of the University of California, priority 2002, dated 2010):
“Also recorded” adds a separate entry of the source. Each block holds one molecule with its values, some of them ahead of it.

Target: T1, cPLA2 (Homo sapiens, UniProt P47712)
T1 sequence (P47712 1-749): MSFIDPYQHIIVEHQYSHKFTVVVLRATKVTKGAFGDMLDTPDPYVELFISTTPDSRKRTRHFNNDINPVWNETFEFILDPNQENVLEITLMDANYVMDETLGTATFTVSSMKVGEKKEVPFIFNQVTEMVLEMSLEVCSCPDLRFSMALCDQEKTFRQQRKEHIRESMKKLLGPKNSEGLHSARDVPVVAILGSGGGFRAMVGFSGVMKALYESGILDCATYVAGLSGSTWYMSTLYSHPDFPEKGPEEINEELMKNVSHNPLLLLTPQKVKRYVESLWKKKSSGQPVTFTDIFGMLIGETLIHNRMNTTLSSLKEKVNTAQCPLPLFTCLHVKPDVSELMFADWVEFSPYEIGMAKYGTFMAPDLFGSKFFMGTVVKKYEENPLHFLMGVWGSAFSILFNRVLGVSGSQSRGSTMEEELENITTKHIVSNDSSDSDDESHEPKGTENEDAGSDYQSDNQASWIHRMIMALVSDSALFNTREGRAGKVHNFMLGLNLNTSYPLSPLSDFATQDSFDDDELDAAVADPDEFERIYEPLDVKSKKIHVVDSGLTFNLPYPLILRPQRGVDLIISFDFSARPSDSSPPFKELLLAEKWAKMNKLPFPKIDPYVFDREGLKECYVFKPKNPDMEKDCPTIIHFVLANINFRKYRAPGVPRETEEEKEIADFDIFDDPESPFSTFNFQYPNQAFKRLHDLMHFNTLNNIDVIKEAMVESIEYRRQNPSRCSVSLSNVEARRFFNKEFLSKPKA
Assay: cPLA2 activity on TX-100/PAPC mixed micelles, inhibition by 2-oxoamides
Format: biochemical
Settings: for XI(50) (mole fraction) / Highest Conc. (mole fraction) w/ % inhibition: Table 2, iPLA2; for Inhibitory potency relative to OA4 (fold less potent): cPLA2, compared with OA4; for XI(50): mixed micelles TX-100 400 μM, PAPC 97 μM, PIP2 3 μM (0.6 mole %); for Inhibition of cPLA2: result in words

SMILES: CCCCCCCCCCCCCC(=O)C(=O)N[C@@H](CCCC)CCCC(=O)O [OA5, (5S)-5-(2-Oxopentadecanoylamino)-nonanoic Acid]
XI(50) (mole fraction): 0.008 ± 0.003 mole fraction | Inhibitory potency relative to OA4 (fold less potent): essentially equivalent

SMILES: CCCCCCCCCCCCCC(=O)C(=O)N[C@H](CCC(=O)O)Cc1ccccc1 [OA9, (4R)-4-(2-Oxo-pentadecanoylamino)-5-phenyl-pentanoic Acid]
XI(50) (mole fraction): 0.035 ± 0.016 mole fraction

SMILES: CCCCCCCCCCOC[C@@H](CCC(=O)O)NC(=O)C(=O)CCCCCCCCCC [OA11, (4R)-5-(Decyloxy)-4-[(2-oxododecanoyl)amino]pentanoic Acid]
XI(50) (mole fraction): 0.047 ± 0.006 mole fraction | XI(50): 0.047±0.006 mole fraction

SMILES: CCCCCCCCCCCCCC(=O)C(=O)N[C@H](CCC(=O)O)CC(C)C [OA12, (4R)-6-Methyl-4-(2-oxo-pentadecanoylamino)-heptanoic Acid]
XI(50) (mole fraction): 0.017 ± 0.006 mole fraction

SMILES: CCCCCCCCCCCCCCC(=O)C(=O)N[C@@H](CCC(=O)O)C(=O)NCCCCCCCCCC [OA15, 4-Decylcarbamoyl-4-(S)-(2-oxo-hexadecanoylamino)-butyric Acid]
XI(50) (mole fraction): 0.044 ± 0.007 mole fraction | Inhibition of cPLA2: moderate level of inhibition

SMILES: CCCCCCCCCCC(=O)C(=O)N[C@@H](CCC(=O)O)COC(=O)NCCCCCCCC [OA16, 5-octylcarbamoyloxy-4-(S)-(2-oxo-dodecanoylamino)-pentanoic Acid]
Highest Conc. (mole fraction) w/ % inhibition (at 0.091 mole fraction): 0.091, 60% | Inhibition of cPLA2: essentially no measurable inhibition

SMILES: CCCCCCCCCCCCCC(=O)C(=O)N1CCCC1CCC(=O)O (stereo not shown) [OA18, 3-[1-(2-Oxo-pentadecanoyl)-pyrrolidin-2-yl]propionic Acid]
Highest Conc. (mole fraction) w/ % inhibition (at 0.091 mole fraction): 0.091; 24%

SMILES: CCCCCCCCCCC(=O)C(=O)N[C@@H](CCC(=O)O)C(=O)NCC [OA29, 4-Ethylcarbamoyl-4-(S)-(2-oxo-dodecanoylamino)-butyric Acid]
Inhibition of cPLA2: did not inhibit; also recorded: essentially no measurable inhibition

SMILES: CCCCCCCCCCC(=O)C(=O)N[C@@H](CCC(=O)O)COC(=O)NCC [OA30, 5-ethylcarbamoyloxy-4-(S)-(2-oxo-dodecanoylamino)-pentanoic Acid]
Inhibition of cPLA2: does not inhibit; also recorded: essentially no measurable inhibition

The remaining lines, values ahead:

XI(50) (mole fraction): 0.027 ± 0.004 mole fraction | Inhibitory potency relative to OA4 (fold less potent): around 3 fold
SMILES: CCCCCCCCCCCCCC(=O)C(=O)N[C@@H](CCCC)CC(=O)O [OA3, (3S)-(2-Oxo-pentadecanoylamino)-heptanoic Acid]

XI(50) (mole fraction): 0.018 ± 0.009 mole fraction | Inhibitory potency relative to OA4 (fold less potent): around 2 fold
SMILES: CCCCCCCCCCC(=O)C(=O)N[C@@H](CCCC)CCCCC(=O)O [OA6, (6S)-6-(2-Oxo-dodecanoylamino)-decanoic Acid]

XI(50) (mole fraction): 0.068 ± 0.005 mole fraction | XI(50): 0.068±0.005 mole fraction
SMILES: CCCCCCCCCCC(=O)C(=O)N[C@H](CCCC)CCC(=O)O [OA7, (4R)-4-[(2-Oxododecanoyl)amino]octanoic acid]

Highest Conc. (mole fraction) w/ % inhibition (at 0.02 mole fraction): 0.02; 22% ± 7%
SMILES: CCNC(=O)C(=O)CC [OA8]

XI(50) (mole fraction): 0.045 ± 0.007 mole fraction | XI(50): 0.045±0.007 mole fraction
SMILES: CCOC[C@H](CCC(=O)O)NC(=O)C(=O)CC [OA10]

XI(50) (mole fraction): 0.033 ± 0.013 mole fraction
SMILES: CCCCCCCCCCC(=O)C(=O)N[C@H](CCC(=O)O)CC(C)C [OA13, (4R)-6-Methyl-4-(2-oxo-dodecanoylamino)-heptanoic Acid]

Highest Conc. (mole fraction) w/ % inhibition (at 0.091 mole fraction): 0.091; 24%
SMILES: CCCCCCC(=O)C(=O)N[C@H](CCC(=O)O)Cc1ccccc1 [OA17, (4R)-4-(2-Oxo-octanoylamino)-5-phenyl-pentanoic Acid]

Inhibition of cPLA2: essentially no measurable inhibition
SMILES: CCCCCCCCCCC(=O)C(=O)N[C@H](CCC(=O)O)C(=O)NCC [OA31, 4-Ethylcarbamoyl-4-(R)-(2-oxo-dodecanoylamino)-butyric Acid]
